Test results published in patent US5451522A, “Genes encoding and method of expressing an enzyme: phthalyl amidase” (priority 1994, dated 1995).
Entries after “also recorded” stand apart in the source; their conditions may differ. Blank lines part the entries; values can stand above or below the compound they belong to.

Tests used:
phthalyl amidase [1] = biological target: T1, phthalyl amidase (Xanthobacter agilis, UniProt P0C2Y0); assay: Influence of effectors and organic solvents on enzyme activity; format: biochemical; conditions: for remaining activity at 1000 µM / % of Control Activity: agent at 1 mM final concentration; for remaining activity at 1000 µM: read-out: % of Control Activity; for effect on enzyme activity (in words): 1 mM unless otherwise indicated, iodoacetic acid 10 mM
T1 construct: 42-aa signal peptide removed
Experimental: A typical reaction mixture consisted of 1 ml total volume and contained 0.1 mM III, 0.1 μM phthalyl amidase in 50 mM potassium phosphate buffer (pH 5.5-9.0) at 32° C. for 20 minutes. The reactions were stopped by the addition of 1 ml methanol. After removal of precipitate by centrifugation, an aliquot of the supernatant fraction (typically 30 μ) was monitored for the beta-lactam nucleus and phthalic acid by HPLC using a Zorbax C8 column (0.46×15 cm; MacMod Analytical Inc., Chadds Ford, Pa.). The two reaction products were eluted by a mobile phase constructed as continuous mixed gradients from (a) 1% ACN (acetonitrile)/0.2% TFA (trifluoroacetic acid) and (b) 80% ACN/0.2% TFA as follows: 1) 0% (b), 3 min; 2) 0-50% (b), 0.5 min; 3) 50-100% (b), 3 min; 4) 100% (b), 2.5 min; 5) 100-0% (b), 0.1 min; and 6) 0% (b), 5 min.
The effect of various agents on the enzymatic activity of phthalyl amidase was determined using standard conditions (see Example 5). All agents were tested at 1 mM final concentration unless otherwise indicated.

Xanthobacter agilis = assay: Induction of phthalyl amidase in Xanthobacter agilis cultures; format: cell-based; conditions: for Total units/mg protein: cell-free lysate, chromogenic substrate II; for Cell weight: 48 hours growth in Bac MI medium
Experimental: Three compounds at different concentrations were added to aerated cultures of the organism growing at 30° C. in Bac MI medium. The compounds tested were phthalate (PAA), phthalyl glycine (PAG), and PMBL. Cells of Xanthobacter agilis were grown with aeration for 24 hours. This vegetative culture was used to inoculate Bac MI medium (50 ml) containing different concentrations of the compounds to be tested. After 48 hours growth under standard conditions, cells were harvested by centrifugation and wet weight of the cells was determined. Crude cell extracts were prepared by lysozyme treatment of the cells as in Example 1. Suspensions were briefly sonicated to break up the viscous suspension. A cell-free supernatant was obtained by centrifugation of the suspension at 14,000 rpm for 15 minutes.
Enzyme activity in cell-free lysates was determined by monitoring conversion of the chromogenic substrate 4-(2'-carboxy-N-benzoyl)amino-2-carboxy-nitrobenzene (II) to 2-nitro-5-amino benzoic acid and phthalic acid, a reaction catalyzed by phthalyl amidase as shown below: [drawing 4]
The assay reaction mixture (1 ml) consisted of 0.3 μmol of the chromogenic substrate (II) and 0.001-0.5 μg of enzyme preparation in 50 mM potassium phosphate buffer, pH 8.0 (buffer A). The enzymatic reaction was conducted at 30° C. for 10 minutes and the appearance of product was monitored at 380 nm (or 430 nm). The amount of substrate hydrolyzed was calculated from a standard curve of the amine product.

phthalyl amidase [2] = biological target: T1, phthalyl amidase; assay: Substrate specificity: chemical structure requirements for enzyme activity; format: biochemical; conditions: for Relative Activity: 2.5 μmol compound, 0.3 units enzyme; for suitability as substrate (in words): Tables 10 and 11
Experimental: The activity of phthalyl amidase against 25 compounds was determined. The compounds were divided into beta-lactams (Table 9), phthalyl amides (Table 10), and aromatic ring substituted amides (Table 11). Each reaction mixture (1 ml total volume) contained 2.5 μmol of compound and 0.3 units of enzyme (based on the chromogenic substrate) of the preparative scale purified enzyme, in 50 mM phosphate buffer, pH 8.0. The reactions were conducted at 30° C. Samples of the reaction mixture were taken at various times, and methanol (equal volume) was added to stop the reaction. The samples were examined by HPLC to determine the extent of substrate hydrolysis. The amount of compound hydrolyzed was calculated from a standard curve of the test compound. All substrates were stable in buffer at 30° C. and pH 8.0 in the absence of enzyme for 24 hours.

[3] = Table 9 beta-lactams, III = 100, 50 mM phosphate pH 8.0, 30° C.
[4] = Table 11 aromatic ring substituted amides, XVII = 100.0, pH 8.0, 30° C.

T1 sequence (P0C2Y0 2-453): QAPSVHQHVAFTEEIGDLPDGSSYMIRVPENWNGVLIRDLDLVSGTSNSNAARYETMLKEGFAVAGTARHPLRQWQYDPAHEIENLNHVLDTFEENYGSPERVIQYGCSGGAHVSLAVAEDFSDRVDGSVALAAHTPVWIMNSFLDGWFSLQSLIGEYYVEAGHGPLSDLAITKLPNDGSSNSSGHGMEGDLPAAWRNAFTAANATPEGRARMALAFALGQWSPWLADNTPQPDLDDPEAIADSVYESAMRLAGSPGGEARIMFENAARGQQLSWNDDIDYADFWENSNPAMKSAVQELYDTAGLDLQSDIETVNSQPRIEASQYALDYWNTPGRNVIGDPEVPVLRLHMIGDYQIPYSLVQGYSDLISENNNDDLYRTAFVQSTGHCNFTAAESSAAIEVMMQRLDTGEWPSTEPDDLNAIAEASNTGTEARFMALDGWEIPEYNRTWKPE

remaining activity at 1000 µM (phthalyl amidase [1]): 99%
SMILES: NC(=O)C1=CN([C@@H]2O[C@H](COP(=O)(O)OP(=O)(O)OC[C@H]3O[C@@H](n4cnc5c(N)ncnc54)[C@H](OP(=O)(O)O)[C@@H]3O)[C@@H](O)[C@H]2O)C=CC1 [NADPH]

SMILES: CCN1C(=O)C=CC1=O [NEM, Nethylmaleimide]
remaining activity at 1000 µM (phthalyl amidase [1]): 100%

SMILES: [Cl][Ni][Cl] [NiCl2]
% of Control Activity (phthalyl amidase [1]): 94%

SMILES: O=C(O)c1ccccc1C(=O)O [PAA, phthalate]
Units/g cells (Xanthobacter agilis; inducer addition 1 mg/ml): 3.9 Units/g cells
Total units/mg protein (Xanthobacter agilis; inducer addition 1 mg/ml): 1.4 µmol/min/mg
Units/g cells (Xanthobacter agilis; inducer addition 2 mg/ml): 9.3 Units/g cells
Total units/mg protein (Xanthobacter agilis; inducer addition 2 mg/ml): 4.3 µmol/min/mg
Units/g cells (Xanthobacter agilis; inducer addition 5 mg/ml): 5.5 Units/g cells
Cell weight (Xanthobacter agilis; inducer addition 5 mg/ml): 0.7 g/50 ml
Total units/mg protein (Xanthobacter agilis; inducer addition 5 mg/ml): 3.7 µmol/min/mg
Units/g cells (Xanthobacter agilis; inducer addition 10 mg/ml): 19.8 Units/g cells
Cell weight (Xanthobacter agilis; inducer addition 10 mg/ml): 0.6 g/50 ml
Total units/mg protein (Xanthobacter agilis; inducer addition 10 mg/ml): 12.0 µmol/min/mg

remaining activity at 1000 µM (phthalyl amidase [1]): 106%
SMILES: Cc1ncc(COP(=O)(O)O)c(C=O)c1O [PLP, pyridoxyl5-phosphate]

effect on enzyme activity (in words) (phthalyl amidase [1]): little or no effect
remaining activity at 1000 µM (phthalyl amidase [1]): 104%
SMILES: c1cnc2c(c1)ccc1cccnc12 [Phenanthroline]

remaining activity at 1000 µM (phthalyl amidase [1]): 100%
SMILES: Nc1nc2c(c(=O)[nH]1)N[C@H](CNc1ccc(C(=O)N[C@@H](CCC(=O)O)C(=O)O)cc1)CN2 [THF, tetrahydrofolate]

Relative Activity (phthalyl amidase [2]; [3]): 0
SMILES: O=C(O)CN1C(=O)C(NC(=O)c2ccccc2)C1CCc1ccco1 (stereo not shown) [VI]

Relative Activity (phthalyl amidase [2]; [3]): 0
SMILES: O=C(O)CN1C(=O)C(NC(=O)Cc2ccccc2)C1CCc1ccco1 (stereo not shown) [V]

suitability as substrate (in words) (phthalyl amidase [2]): most active compound found
SMILES: CCCCCCC(C(=O)O)n1cnc(NC(=O)c2ccccc2C(=O)O)c1 (stereo not shown) [XIII]

Relative Activity (phthalyl amidase [2]; Table 10 phthalyl amides, III = 100.0, 50 mM phosphate pH 8.0, 30° C.): 9.7
SMILES: CC(C)NC(=O)c1ccccc1C(=O)O [XII]

Relative Activity (phthalyl amidase [2]; [4]): 100.0
SMILES: CCCCCCC(C(=O)O)n1cnc(NC(=O)c2ccccc2C(=O)O)c1 (stereo not shown) [XVII]

Relative Activity (phthalyl amidase [2]; [4]): 0
SMILES: CCCCCCC(C(=O)O)n1cnc(NC(=O)c2ccc(C(=O)O)cc2)c1 (stereo not shown) [XXIII]
suitability as substrate (in words) (phthalyl amidase [2]): completely eliminates hydrolytic activity

Relative Activity (phthalyl amidase [2]; [4]): 0.2
suitability as substrate (in words) (phthalyl amidase [2]): Low levels of hydrolysis
SMILES: CCCCCCC(C(=O)O)n1cnc(NC(=O)c2ccccc2-c2nn[nH]n2)c1 (stereo not shown) [XXII]

Relative Activity (phthalyl amidase [2]; [4]): 0
SMILES: CCCCCCC(C(=O)O)n1cnc(NC(=O)c2cccc(C(=O)O)c2)c1 (stereo not shown) [XXIV]
suitability as substrate (in words) (phthalyl amidase [2]): completely eliminates hydrolytic activity

Relative Activity (phthalyl amidase [2]; [4]): 1.3
suitability as substrate (in words) (phthalyl amidase [2]): acceptable
SMILES: CCCCCCC(C(=O)O)n1cnc(NC(=O)c2cccc(O)c2C(=O)O)c1 (stereo not shown) [XXI]

Relative Activity (phthalyl amidase [2]; [4]): 0
SMILES: CCCCCCC(C(=O)O)n1cnc(NC(=O)c2ccccc2)c1 (stereo not shown) [XXVIII]

Relative Activity (phthalyl amidase [2]; [4]): 0
SMILES: CCCCCCC(C(=O)O)n1cnc(NC(=O)c2cc(O)cc(O)c2)c1 (stereo not shown) [XXVII]

Relative Activity (phthalyl amidase [2]; [4]): 0
SMILES: CCCCCCC(C(=O)O)n1cnc(NC(=O)c2cccc(O)c2)c1 (stereo not shown) [XXVI]

Relative Activity (phthalyl amidase [2]; [4]): 0
SMILES: CCCCCCC(C(=O)O)n1cnc(NC(=O)c2ccccc2O)c1 (stereo not shown) [XXV]

SMILES: [Cl-].[Cl-].[Zn+2] [ZnCl2]
% of Control Activity (phthalyl amidase [1]): 100%

SMILES: O=C(O)c1cc[c]([Hg][OH])cc1 [p-HMB, parahydroxy mercuric benzoate]
effect on enzyme activity (in words) (phthalyl amidase [1]): significantly reduced; also recorded: significantly inhibited
% of Control Activity (phthalyl amidase [1]): 65%
